According to PubChem BioAssay AID2060350 (Molecular Pharmacology Branch, DTP, NCI, 2025):

Tested on: PDC 521955-158-R6-J3 spheroids, viability
Assay: Anticancer human tumor 521955-158-R6-J3-PDC patient-derived pancreatic carcinoma cell line growth inhibition [TAK]
Settings: spheroids with HUVEC and MSC; for IC50: curve of first compound; for viability, T/C: stronger effect = lower value
Outline: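 Tumor cells were grown as spheroids with HUVEC and hMSC (60:25:15) and treated with targeted agents combined with TAK-243 or ipatasertib. Drugs were tested in half-log steps down from near the clinical Cmax, or from 10 microM where Cmax was unknown.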

[1] = second compound 0.3 µM, first compound 0.0316 µM
[2] = second compound 0.3 µM, first compound 0.1 µM
[3] = second compound 0.3 µM, first compound 0.316 µM
[4] = second compound 0.3 µM, first compound 1 µM
[5] = second compound 0.949 µM, first compound 0.0316 µM
[6] = second compound 0.949 µM, first compound 0.1 µM
[7] = second compound 0.949 µM, first compound 0.316 µM
[8] = second compound 0.949 µM, first compound 1 µM
[9] = second compound 3 µM, first compound 0.0316 µM
[10] = second compound 3 µM, first compound 0.1 µM
[11] = second compound 3 µM, first compound 0.316 µM
[12] = second compound 3 µM, first compound 1 µM
[13] = second compound 9.49 µM, first compound 0.0316 µM
[14] = second compound 9.49 µM, first compound 0.1 µM
[15] = second compound 9.49 µM, first compound 0.316 µM
[16] = second compound 9.49 µM, first compound 1 µM
[17] = second compound 30 µM, first compound 0.0316 µM
[18] = second compound 30 µM, first compound 0.1 µM
[19] = second compound 30 µM, first compound 0.316 µM
[20] = second compound 30 µM, first compound 1 µM
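Note: spheroids exposed to drugs for 7 days before readout.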
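Throughout, for viability, T/C: 100% = DMSO vehicle control viability.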

Compound `COc1c(OCCCN2CCOCC2)ccc2c3n(c(=NC(=O)c4cnc(N)nc4)nc12)CCN3` + CC(C)NCC(C(=O)N1CCN(c2ncnc3c2C(C)CC3O)CC1)c1ccc(Cl)cc1 has an IC50 (second compound 0.3 µM) of 38.4 nM, an IC50 (second compound 0.949 µM) of 7.43 nM and an IC50 (second compound 3 µM) of under 3.16 nM. It also gave an IC50 (second compound 9.49 µM) of under 3.16 nM, an IC50 (second compound 30 µM) of under 3.16 nM and a viability, T/C (second compound 0.3 µM, first compound 0.00316 µM) of 70.9%. The viability, T/C (second compound 0.3 µM, first compound 0.01 µM) was 63.6%, the viability, T/C [1] was 51.2% and the viability, T/C [2] was 41%. It also gave a viability, T/C [3] of 27%, a viability, T/C [4] of 21.6% and a viability, T/C (second compound 0.949 µM, first compound 0.00316 µM) of 52.4%. For the same compound, the viability, T/C (second compound 0.949 µM, first compound 0.01 µM) was 48.2%, the viability, T/C [5] was 44.9% and the viability, T/C [6] was 37.4%. For the same compound, the viability, T/C [7] was 25.9%, the viability, T/C [8] was 20.2% and the viability, T/C (second compound 3 µM, first compound 0.00316 µM) was 46.8%. The viability, T/C (second compound 3 µM, first compound 0.01 µM) was 43.5%, the viability, T/C [9] was 37.8% and the viability, T/C [10] was 32.9%. It also gave a viability, T/C [11] of 25.7%, a viability, T/C [12] of 19.5% and a viability, T/C (second compound 9.49 µM, first compound 0.00316 µM) of 43.3%. The viability, T/C (second compound 9.49 µM, first compound 0.01 µM) was 37.5%, the viability, T/C [13] was 35.8% and the viability, T/C [14] was 29.9%. It also gave a viability, T/C [15] of 22.8%, a viability, T/C [16] of 19.8% and a viability, T/C (second compound 30 µM, first compound 0.00316 µM) of 41.1%. The viability, T/C (second compound 30 µM, first compound 0.01 µM) was 34.5%, the viability, T/C [17] was 37% and the viability, T/C [18] was 24.6%. For the same compound, the viability, T/C [19] was 18% and the viability, T/C [20] was 15.4%.

`Cc1nc(NC(=O)N2CCCC2C(N)=O)sc1-c1ccnc(C(C)(C)C(F)(F)F)c1` (stereo not given) + CC(C)NCC(C(=O)N1CCN(c2ncnc3c2C(C)CC3O)CC1)c1ccc(Cl)cc1 showed an IC50 (second compound 0.3 µM) of over 10000 nM, an IC50 (second compound 0.949 µM) of 4490 nM and an IC50 (second compound 3 µM) of 2820 nM. The IC50 (second compound 9.49 µM) was 509 nM, the IC50 (second compound 30 µM) was 481 nM and the viability, T/C [1] was 70.5%. It also gave a viability, T/C [2] of 77%, a viability, T/C [3] of 72.7% and a viability, T/C [4] of 63.1%. The viability, T/C (second compound 0.3 µM, first compound 3.16 µM) was 66.4%, the viability, T/C (second compound 0.3 µM, first compound 10 µM) was 55.6% and the viability, T/C [5] was 63.4%. For the same compound, the viability, T/C [6] was 64%, the viability, T/C [7] was 57.3% and the viability, T/C [8] was 55.3%. For the same compound, the viability, T/C (second compound 0.949 µM, first compound 3.16 µM) was 54.3%, the viability, T/C (second compound 0.949 µM, first compound 10 µM) was 44.9% and the viability, T/C [9] was 57.2%. It also gave a viability, T/C [10] of 62.7%, a viability, T/C [11] of 58.8% and a viability, T/C [12] of 51.5%. The viability, T/C (second compound 3 µM, first compound 3.16 µM) was 51.2%, the viability, T/C (second compound 3 µM, first compound 10 µM) was 38.9% and the viability, T/C [13] was 63%. For the same compound, the viability, T/C [14] was 58.4%, the viability, T/C [15] was 48.2% and the viability, T/C [16] was 47.2%. It also gave a viability, T/C (second compound 9.49 µM, first compound 3.16 µM) of 46.9%, a viability, T/C (second compound 9.49 µM, first compound 10 µM) of 35.1% and a viability, T/C [17] of 60%. It also gave a viability, T/C [18] of 49.2%, a viability, T/C [19] of 54.5% and a viability, T/C [20] of 46.8%. For the same compound, the viability, T/C (second compound 30 µM, first compound 3.16 µM) was 38.9% and the viability, T/C (second compound 30 µM, first compound 10 µM) was 26.2%.
